Source: US9718811B2, “(S)-enantiomer of mepazine” (Helmholtz Zentrum München—Deutsches Forschungszentrum für …, priority 2013, dated 2017)
“Also recorded” adds a separate entry of the source.

Legend:
human MALT1 (L339-R719) = target: T1, human MALT1 (L339-R719) (Homo sapiens, UniProt Q9UDY8); assay: Tryptophan fluorescence quenching assay; details: monomeric MALT1 (L339-R719), quenching of W580, 20° C.; FIG. 2a/b; read-out: binding affinity KD
T1 construct: human MALT1 (L339-R719) was used; only implied by the Ni-NTA purification; made in house; host or cells: Escherichia coli Rosetta (DE3)
T1 sequence (Q9UDY8 339-719): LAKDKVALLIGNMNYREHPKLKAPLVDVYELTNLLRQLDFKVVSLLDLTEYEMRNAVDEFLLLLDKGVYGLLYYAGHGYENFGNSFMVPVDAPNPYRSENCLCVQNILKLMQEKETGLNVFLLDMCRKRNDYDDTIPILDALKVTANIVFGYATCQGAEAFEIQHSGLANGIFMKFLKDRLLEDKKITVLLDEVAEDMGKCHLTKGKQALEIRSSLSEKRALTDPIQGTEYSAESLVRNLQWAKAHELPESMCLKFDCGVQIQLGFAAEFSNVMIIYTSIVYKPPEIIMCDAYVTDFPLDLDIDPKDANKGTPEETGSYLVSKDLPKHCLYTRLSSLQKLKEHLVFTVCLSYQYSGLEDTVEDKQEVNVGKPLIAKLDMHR
Protocol: For crystallization and tryptophan fluorescence quenching human MALT1 (L339-R719) was used.
Fluorescence quenching of tryptophan W580 was measured with the fluorescence spectrometer (FluoroMax-P, HORIBA Jobin Yvon) at an extinction wavelength of 285 nm and an emission wavelength of 329 nm. The measurement was performed by 2 μl titration steps of 400 μM, 800 μM, 4 mM, 8 mM thioridazine and mepazine stock solutions in H2O against 0.5 μM monomeric MALT1 (L339-R719) in 1.6 ml assay buffer (5 mM Hepes pH 7.0, 300 mM NaCl) at 20° C. The quenching assay of thioridazine and mepazine enantiomers was performed equally to racemates measurements.
For this assay advantage was taken from the fact that W580 is the only tryptophan residue in the MALT1Casp-Ig3 construct and is in close proximity to the bound tricyclic moiety of the phenothiazine derivatives.

GST-MALT1325-760 = target: T2, GST-MALT1325-760 (Homo sapiens, UniProt Q9UDY8); assay: MALT1 paracaspase activity (fluorogenic cleavage) assay
T2 sequence (Q9UDY8 325-760 limits assumed): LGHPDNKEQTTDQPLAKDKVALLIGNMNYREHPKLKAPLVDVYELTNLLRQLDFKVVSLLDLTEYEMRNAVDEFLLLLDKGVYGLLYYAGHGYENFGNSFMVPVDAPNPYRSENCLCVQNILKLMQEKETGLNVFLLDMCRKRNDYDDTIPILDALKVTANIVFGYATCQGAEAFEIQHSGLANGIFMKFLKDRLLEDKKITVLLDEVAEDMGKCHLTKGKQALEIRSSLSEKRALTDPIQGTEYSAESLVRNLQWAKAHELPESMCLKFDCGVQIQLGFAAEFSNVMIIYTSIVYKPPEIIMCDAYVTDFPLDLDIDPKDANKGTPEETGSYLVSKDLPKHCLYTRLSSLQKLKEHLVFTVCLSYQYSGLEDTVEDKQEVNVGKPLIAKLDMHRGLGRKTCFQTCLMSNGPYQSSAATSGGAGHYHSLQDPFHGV

[1] = tested on: ABC DLBCL cell-line OCI-Ly10; assay: DLBCL xenograft model, OCI-Ly10 tumor; format: in vivo, mice (NSG); details: 6 or 12 mg/kg IP once daily, started 13 days after transplantation
Protocol: (§1) Tumors were engrafted in 6- to 8-week-old female NOD.Cg-Prkdc^scid I12rg^tm1Wj1/SzJ (NSG) mice by subcutaneous injection of 4×10^6 tumor cells (OCI-Ly10 or Su-DHL-6) resuspended in matrigel (BD). Both tumors were engrafted simultaneously on opposite flanks of individual mice, with four mice for each treatment group. […] A daily application of 150 or 300 μg of compound per animal (˜25 g) was used, corresponding to approximately 6 or 12 mg/kg, respectively. The tumor size was measured every other day after visual appearance using a caliper and calculated as square millimeters (length×width). Mice were sacrificed when the tumors were above 250 mm^2 and statistical data was analyzed with a two-way ANOVA test.
(§2) In the DLBCL xenograft model NSG mice were subcutaneously injected with the MALT1-dependent ABC DLBCL cell line OCI-Ly10 and the MALT1-independent GCB DLBCL cell-line Su-DHL6 in opposing flanks of individual mice.

[2] = tested on: GCB DLBCL cell-line Su-DHL-6; assay: DLBCL xenograft model, Su-DHL-6 control tumor; format: in vivo, mice (NSG); details: 6 or 12 mg/kg IP once daily, started 13 days after transplantation
Protocol: as §1, §2

[3] = Chronic progressive EAE (experimental allergic encephalomyelitis) model; format: in vivo, C57Bl/6 mice
Protocol: For the EAE model first 1 mg/ml MOG35-55 peptides (MOG: myelin/oligodendrocyte glycoprotein; accession no. AAF74786) were emulsified 1:1 in Complete Freund's Adjuvant (CFA, incl. 5 mg/ml heat-killed M. tuberculum H37RA). On day one female C57Bl/6 mice (8-10 weeks old) were subcutaneously treated with 0.1 ml of MOG/CFA (0.1 mg MOG/0.25 mg CFA per mouse) in both flanks. In addition 0.2 ml pertussis toxin ([…]) was intraperitoneally injected immediately after (200 ng per mouse), followed by a second injection the day after. […] The clinical score of the mice was determined according to the following parameters: Score 0=no obvious signs of motor dysfunction in mice compared to non-immunized control; 0.5—distal tail limpness; 1=limp or floppy tail; 2=limp tail and weakness in hind legs; 3=limp tail and complete paralysis of hind legs OR limp tail with paralysis of one front and one hind leg; 4=limp tail, complete hind leg and partial front leg paralysis; 5=complete hind and complete front leg paralysis, no movement around cage OR mouse is spontaneously rolling in cage OR mouse found dead due to paralysis.
At the end of the study mice were euthanized and blood serum and also the brain and the spinal cord was collected for a histopathology analysis. Here foci of inflammatory cell infiltrate (at least 50 μm) into the spinal cord were counted and scored using the following criteria: 0=normal; 0.5 very minimal; 1=minimal, 2-4 generally less than 100 μm width/length; 2=mild, 5-7 small discreet foci; 3=moderate, 8-10 small plus larger coalescing areas; 4=marked, 11-13 small plus larger coalescing areas; 5=severe, often multiple coalescing >13. Percent area of white matter that bad demyelination, edema, dilated axons was estimated and used to determine a score using the following criteria: 0=normal; 1=minimal, 1-5% of total are affected; 2=mild, 5-25% of total area affected; 3=moderate, 26-50% of total area affected; 4=marked, 51-75% of total area affected; 5=>75% of total area affected.

[4] = CIA (collagen induced arthritis) model; format: in vivo, DBA1/J mice; details: paw histopathology
[5] = Racemization check by chiral HPLC; format: physicochemical
Protocol: Enantiomeric purity of the thioridazine and mepazine enantiomers was determined by comparison to commercially available racemates using a ChiralPak IA 250×4.6 mm (L×I.D.) […] tris(3,5-dimethylphenylcarbamate) column. For thioridazine an isocratic gradient of 1% ethanol in hexane containing 0.1% diethylamine modifier was used. In the case of mepazine an isocratic gradient of 1% isopropanol in hexane containing 0.1% diethylamine modifier was used. Both were run at 1 ml/min.
(S)-Mepazine provided a single peak by Chiral HPLC under conditions in which the individual enantiomers are resolved.

[6] = IC50 (MALT1 cleavage assay), wt GST-MALT1325-760, Ac-LRSR-AMC substrate, FIG. 2c/d
[7] = IC50 on recombinant MALT1 (fluorogenic MALT1 cleavage assay), FIG. 3a/b
[8] = IP 8 mg/kg twice daily, histopathology, 8 mg/kg

| Kd (human MALT1 (L339-R719)) [µM] | IC50 (GST-MALT1325-760; [6]) [µM] | IC50 (GST-MALT1325-760; [7]) [µM] | racemization on standing or in solution [5] | Compound | growth of the ABC DLBCL (OCI-Ly10) tumor [1] | growth of the GCB DLBCL (Su-DHL-6) control tumor [2] | EAE induced weight loss ([3]; IP 8 mg/kg twice daily) | EAE severity (clinical score) ([3]; IP 8 mg/kg twice daily (16 mg/kg), started at clinical score of around 1) | demyelination in the spinal cord [3, 8] | inflammatory foci formation in the spinal cord [3, 8] | CIA-related inflammation [4] | bone resorption [4] | cartilage damage [4] | pannus formation [4] |
| --- | --- | --- | --- | --- | --- | --- | --- | --- | --- | --- | --- | --- | --- | --- |
| 23 ± 0.6 | 5 ± 1.5 | 4.99 ± 1.52 |  | CSc1ccc2c(c1)N(CCC1CCCCN1C)c1ccccc1S2 (single isomer, unassigned) [(R)-thioridazine] |  |  |  |  |  |  |  |  |  |  |
| 21.3 ± 0.5 | 4.8 ± 0.9 | 4.83 ± 0.88 |  | CSc1ccc2c(c1)N(CCC1CCCCN1C)c1ccccc1S2 (single isomer, unassigned) [(S)-thioridazine] |  |  |  |  |  |  |  |  |  |  |
|  |  |  | No racemization | CN1CCC[C@H](CN2c3ccccc3Sc3ccccc32)C1 [(S)-mepazine, 10-{[(3S)-1-methylpiperidin-3-yl]methyl}-10H-phenothiazine] | selective growth reduction | not affected | reduced EAE induced weight loss | reduction of EAE severity | reduced; also recorded: inhibition | reduced; also recorded: inhibition | strong reduction; also recorded: decrease | strong reduction; also recorded: decrease | strong reduction; also recorded: decrease | strong reduction; also recorded: decrease |
